Source: patent US11123319B2, “Methods and compositions for treating edema refractory to oral diuretics” (RESQ Pharmaceuticals LLC, priority 2019, dated 2021)
Structures can show the parent of a compound that is named as a salt.

How the values were obtained:
[1] = Solubility of bumetanide (free acid) in water in the presence and absence of surfactant, HPLC; format: physicochemical; details: 10 mg in 1 mL deionized water, no surfactant
Method: Bumetanide, 10 mg, in its free acid form was added to 1 mL of deionized water and mixed using a vortex and sonicator. The solution was filtered using a 0.22 μm nylon syringe filter. To 900 μL deionized water, 100 μL of the filtered bumetanide solution was added before being characterized for the concentration of the bumetanide in solution using HPLC. The concentration of bumetanide was determined using a standard curve generated by bumetanide solutions of known concentrations. […] Therefore, to the 10 mg of bumetanide, 1 mL of deionized water containing 1.0%, 0.5% or 0.1% of the surfactant tetradecyl-β-D-maltoside. The bumetanide was then solubilized using a vortex and sonicator, after which it was filtered using a 0.22 μm nylon syringe filter. To 900 μL deionized water, 100 μL of the filtered bumetanide solution was added before being characterized for the concentration of the bumetanide in solution using HPLC. The resulting bumetanide concentrations are recorded in Table 1.

[2] = Serum pharmacokinetics of bumetanide after single intranasal, sublingual or intravenous dose in dogs; details: both sexes, beagle, dog, in vivo, 0.5-mg IV dose (Second Replicate), individual animals
Method: The purpose of this study was to assess the pharmacokinetic profiles of various formulations of bumetanide, including arginine bumetanide salts (F69), potassium bumetanide salts (F10), an bumetanide emulsion (FE-9), and a nano-emulsion of bumetanide (FNE-1), which are described in Table 42, when each formulation is administered as a single intranasal dose or as a single sublingual dose in different vehicles when compared to single IV administration dose in male and female beagle dogs.
A total of four dogs were assigned to the study (3 males, 8-12 kg and 1 female, 7-11 kg). Because bumetanide is a diuretic, 30 minutes prior to dosing, the dogs received a 100 mL injection of Lactated Ringer's solution subcutaneously (SQ) for all events. The 100 mL injection was repeated ˜2 hours post-dose.
This study was conducted in 9 Events in two phases (A and B) in the same animals, separated by approximately a 48 hour or more washout period between events in each phase and ˜2 weeks rest period between phases, meaning Phase B events were initiated after ˜2 weeks rest period from completion of Event 5. The dosing regimen for Phase A and Phase B events are described in Table 43 and 44 respectively.
For intranasal administration, each dog was held in an upright position with the nose pointing up. […]

[3] = Stability of arginine and potassium bumetanide salt solutions over four weeks at 5 °C or 25 °C; format: physicochemical; details: for stability in solution (conclusion): at either 5° C. or 25° C.
Method: The stability of the arginine and potassium bumetanide salts was monitored over a four week period with storage at either 2-8° C. or 25° C. for that time period. The bumetanide salt solutions were evaluated on the basis of pH, concentration of bumetanide in solution, the percent assay recovery and the presence of an impurity (see Tables 18 and 19).

[4] = Solubility of bumetanide salts formed in situ with various bases (saturated solution, HPLC); format: physicochemical; details: deionized water with base added (salt formed in situ), thermodynamic from solid, 20 mg bumetanide in 1 mL deionized water + base, 0.22 μm filtrate, read-out: Calculated conc. (measured solubility of bumetanide salt)
Method: The acid form of bumetanide was weighed out to 20 mg and dissolved in 1 mL of deionized water by mixing with a vortex to form a low-pH solution of bumetanide. To this low pH bumetanide solution, a determined amount of base was added and mixed using a vortex for 2 minutes, to form a solution having a pH suitable for nasal administration. With the increasing pH the bumetanide salt formed in situ precipitated, in part, to form a saturated solution of the resulting salt form. The saturated solution was then filtered through a 0.22 μm filter to remove all precipitated bumetanide salt. The filtrate was collected, and its pH was measured. An aliquot of the saturated solution was assayed for bumetanide by HPLC to determine the maximum concentration achievable for the salt form in water at about neutral pH.
This procedure was repeated for various bases, including arginine, lysine, potassium, sodium, glycine, histidine, and the cationic lipophilic surfactants soy lecithin, distearoyl glycerol-3-phosphatidylamine, L-α-phosphatidylethanolamine and bis(2-ethylhexyl)amine, in order to determine the maximum solubility of each bumetanide salt solution.

SMILES	Assay ([3]; 1 week, 5° C.) [mg/mL]	pH ([3]; 1 week, 5° C.)	Assay ([3]; 1 week, 25° C.) [mg/mL]	pH ([3]; 1 week, 25° C.)	Assay ([3]; 2 weeks, 5° C.) [mg/mL]	pH ([3]; 2 weeks, 5° C.)	Assay ([3]; 2 weeks, 25° C.) [mg/mL]	pH ([3]; 2 weeks, 25° C.)	Assay ([3]; 4 weeks, 5° C.) [mg/mL]	pH ([3]; 4 weeks, 5° C.)	Assay ([3]; 4 weeks, 25° C.) [mg/mL]	pH ([3]; 4 weeks, 25° C.)	Assay ([3]; T0) [mg/mL]	Osmolality ([3]; T0) [mOsm/kg]	Viscosity ([3]; T0) [cP]	pH ([3]; T0)	stability in solution (conclusion) [3]	further results
CCCCNc1cc(C(=O)O)cc(S(N)(=O)=O)c1Oc1ccccc1 [Bumetanide, bumetanide]	–	–	–	–	–	–	–	–	–	–	–	–	–	–	–	–	–	solubility of free acid form in water [1]: Nearly no bumetanide in the free acid form was soluble water; concentration at 45 min [2]: 13.9 ng/mL
CCCCNc1cc(C(=O)O)cc(S(N)(=O)=O)c1Oc1ccccc1.N=C(N)NCCCC(N)C(=O)O [arginine bumetanide salt]	5.08	7.0	5.06	7.1	4.99	7.0	4.97	7.0	4.89	7.0	4.97	7.1	5.07	335	1.3	7.0	stable for up to four weeks	impurity by HPLC ([3]; initially or after four weeks, 5° C. and 25° C.): no impurity was detected
CCCCNc1cc(C(=O)O)cc(S(N)(=O)=O)c1Oc1ccccc1 [potassium bumetanide salt]	5.18	7.0	5.10	7.0	4.97	7.0	4.96	7.1	5.00	7.0	5.03	7.1	5.10	317	1.3	7.0	stable for up to four weeks	solubility at 2 min [4]: 20.2 mg/mL
